{
  "source": "patent US11033545B2",
  "about": "“Negative allosteric modulators of MGLUR5 for use in the treatment of mature brain damages” (Sinntaxis AB, priority 2016, dated 2021)",
  "key": {"[1]": {"system": "male C57/BL6 mice", "assay": "Paw placement test after photothrombotic stroke in the mouse", "type": "in vivo"}, "[2]": {"system": "male Sprague Dawley rats", "assay": "Paw placement test after photothrombotic stroke in the rat", "type": "in vivo", "procedure": "Animals. All experiments were carried out with the approval of the Malmö-Lund animal review board and according to the ARRIVE guidelines. Animals were housed under reverse light conditions, with the testing performed during the dark period when the rats are active. The experiments were carried out on male Sprague Dawley rats (11 weeks of age, Charles River, Scanbur A/S Karlslunde, Denmark). The studies were subjected to randomization and carried out in a blinded fashion to the investigators who performed the surgeries and behavioral assessment.\nAdministration of compound. The compound was injected as a bolus dose of 1 ml/kg into the lower quadrant of the abdomen.\n(§1) Experimental stroke. The animals were anesthetized by isoflurane (approximately 2% in 02 under spontaneous ventilation) and placed into stereotaxic frame. Temperature was monitored during surgery using a rectal temperature probe and animals were kept at 37.0-37.5±0.2° C. by means of a heating pad with feedback control. A sagittal skin incision was made and subcutaneous connective tissue was removed and the skull was dried. Thereafter, the photosensitizer dye Rose Bengal (0.5 mL at 10 mg/mL) was infused in the tail vein. Two minutes after injection, the skull was illuminated with cold light (Schott, KL 1500 LCD) on an area of 8 to 4.5 mm for 15 min (from +4 to −4 mm antero-posterior and from 0.5 to 5 mm on the left from bregma). Thereafter the tail and the scalp incisions were sutured and the rats transferred to their home cage. The functional deficit was assessed 2 h after the onset of the stroke using the limb placement test and only the animals having a score 0, for both fore- and hindlimb contralateral to the brain damaged hemisphere were used for the study.\nTest of neurological function. The paw placement test. The cortical damage inflicted by the phothrombosis, causes a deficit due to neuronal loss in the sensori-motor area and depression of functions in neuronal networks in the vicinity of the lesion. […] This test provides information on the tactile/proprioceptive response to limb stimulation. Animals were placed with all 4 paws on the table top, and the paws to be tested along the edge. The rat was moved over the edge so the paws to be tested loose contact with the table surface. The ability of the animals to place the limb back onto the table surface when the rat was moved towards the edge was evaluated. Importantly, the head was held at 45° angle, so that visual and whisker/snout stimulation was prevented. A prompt placement of the limb onto the table was scored as 1. Incomplete placing of the limb was scored as 0.5, and complete extension of the limb and paw was scored as 0. In order to obtain groups with a similar functional deficit prior to treatment of the animals with drugs or vehicle, selective sorting was performed on day 2 after experimental stroke, a time point of recovery when the infarct development had subsided.\n(§2) Administration of the compounds. The compounds were administrated orally (p.o.) by catheters placed in the stomach. The amount of solutions were 0.2 ml/rat and 0.1 ml/mice.\n(§3) Induction of stroke was as made as in Example 1 for rats and as in Example 2 in mice. Assessment of neurological function was performed as in Example 1 for rats and as in Example 2 for mice. The animals were perfused and immunostained as in Example 1, and the infarct size was assessed as in Example 1.\nInduction of stroke, assessment of neurological function, perfusion of animals, immunostaining and assessment of infarct size were made as in Example 1."}, "[3]": {"system": "male C57/BL6 mice", "assay": "Paw placement test after photothrombotic stroke in the mouse", "type": "in vivo", "conditions": "for paw function: continued for 5 days, FIG. 3C", "procedure": "Animals. All experiments were carried out with the approval of the Malmo-Lund animal review board and according to the ARRIVE guidelines. The experiments were carried out on male C57/BL6 mice (8 weeks of age, Charles River Scanbur A/S Karlslunde, Denmark). Studies were subjected to randomization and carried out in a blinded fashion to the investigators who performed the surgeries and behavioral assessment.\nMaterials were as in Example 1 and the administration of the drug was made as in Example 1. Also the positive allosteric modulator (PAM) for the mGlur5 receptor was SIN006 (N-Cyclobutyl-6-[2-(3-fluorophenyl)ethynyl]-3-pyridinecarboxamide hydrochloride; VU0360172).\nInduction of stroke in the mouse. Mice were subjected to unilateral photothrombotic (PT) cortical infarct in the left sensori-motor cortex. During surgery, the body temperature of the animals was kept at 37° C. using a self-regulating heating pad. Animals were anesthetized using 1.5-2.5% isoflurane (Sigma) in 100% 02. The skin above the skull was incised; a fiber optic bundle with a 2.5 mm aperture diameter was connected to a cold light source (CL 1500 ECO, Zeiss, Germany) and adjusted to the stereotaxic coordinates of the sensori-motor cortex, 0.5 mm anterior to bregma and 1.5 mm lateral to midline. One intraperitoneal (i.p.) injection of 0.25 ml Rose Bengal (10 mg/ml in 0.9% saline; Sigma-Aldrich, Germany) was given 5 min before the light was turned on for 20 minutes. Care was taken not to exceed 38° C. at the skull surface, underneath the fiber optic bundle. Post surgery, animals were allowed to awake from anesthesia while on a heating pad and returned to the cages with free access to food pellets and water.\nEnriched housing. It is well known that housing of rodents in an enriched environment stimulates the various sensori-motor systems of the brain enhancing recovery after experimental stroke. Enriched housing was accomplished by the following procedure. After selective sorting at day 2 after stroke, mice were randomly distributed into standard (STD, 17 cm×16 cm×34.5 cm) or enriched cages (EE, 30 cm×27 cm×43 cm). Multilevel-enriched cages were equipped with various colored objects such as plastic tunnels, small houses, slides and rodent running wheels; the disposition of the objects was changed every second day. Mice were housed in either standard (2 animals/cage) or enriched cages (6-8 animals/cage) for 12 days. Animals in standard cages were handled similarly except for the housing condition.\nPaw placement test. The mouse was held along its rostro-caudal extension on the edge of a bench and both the unilateral front and hind paws were gently pushed along it. The placement of each paw was recorded when the mouse was moved towards the edge. Sensori-motor dysfunction was assessed by using a score of 1, 0.5, and 0: (1)—the paw is immediately placed on the table surface; (0.5)—the limb is extended, but with some movements and attempts to place the paw on the surface of the table; (0)—the paw is totally immobilized, hanging down, with no movement. In order to obtain groups with a similar functional deficit prior to treatment of the animals with drugs or vehicle, selective sorting was performed on day 2 after experimental stroke, a time point of recovery when the infarct development had subsided.\nas §2, §3"}, "[4]": {"system": "mGluR5 KO rats", "assay": "Paw placement test after stroke in mGluR5 KO rats", "type": "in vivo, rat", "conditions": "SIN013 treatment, FIG. 3D", "procedure": "as §1, with “Two minutes after injection, the skull was illuminated with cold light (Schott, KL 1500 LCD) on an area of 8 to 4.5 mm for 15 min (from +4 to −4 mm antero-posterior and from 0.5 to 5 mm on the left from bregma). Thereafter the tail and the scalp incisions were sutured and the rats transferred to their home cage.” left out\nTest of neurological function. […] The ability of the animals to place the limb back onto the table surface when the rat was moved towards the edge was evaluated. […] A prompt placement of the limb onto the table was scored as 1. Incomplete placing of the limb was scored as 0.5, and complete extension of the limb and paw was scored as 0. […]\nInduction of stroke was as made as in Example 1 for rats and as in Example 2 in mice. […] The animals were perfused and immunostained as in Example 1, and the infarct size was assessed as in Example 1."}},
  "data": [
    {"smiles": "Cl.O=C(NC1CCC1)c1ccc(C#Cc2cccc(F)c2)nc1", "note": "[SIN006, N-Cyclobutyl-6-[2-(3-fluorophenyl)ethynyl]-3-pyridinecarboxamide hydrochloride]", "values": [
      {"measurement": "effect on enhanced recovery of function by enriched environment", "setting": "[1]; SIN006 30 mg/kg p.o. concomitant with 5 days enriched housing after stroke, FIG. 2E", "value": "completely blocked"},
      {"measurement": "paw placement score after 5 days of treatment", "setting": "[1]; SIN006 30 mg/kg p.o. daily, 1 hour prior to SIN007 5 mg/kg i.p., starting two days after stroke, FIG. 2D", "value": "did not recover function"}
    ]},
    {"smiles": "Fc1ccc2nc(CCC#Cc3ccccn3)cn2c1", "note": "[SIN008, 6-Fluoro-2-[4-(pyridin-2-yl)-3-butynyl]imidazo[1,2-a]pyridine]", "values": [
      {"measurement": "neurological function (paw placement)", "setting": "[2]; rat, 30 mg/kg p.o. for 5 days, started 2 days after stroke, vs vehicle, FIG. 3A", "value": "significantly improved neurological function"}
    ]},
    {"smiles": "CN1CC(=O)N=C1NC(=O)Nc1cccc(Cl)c1", "note": "[SIN010, 1-(3-chlorophenyl)-3-(3-methyl-5-oxo-4H-imidazol-2-yl)urea]", "values": [
      {"measurement": "recovery of function", "setting": "[2]; rat, 10 mg/kg p.o. daily for 5 days or 12 days, initiated 2 days after stroke, FIG. 4A", "value": "improves recovery function"},
      {"measurement": "improvement of function, time dependence", "setting": "[2]; rat, 10 mg/kg p.o. daily for 12 days, initiated 2 days after stroke, vs vehicle, FIG. 4A", "value": "significant after 12 days of treatment"},
      {"measurement": "recovery of function, combined with enriched housing", "setting": "[3]; mice, daily SIN010 plus enriched housing from 2 days after stroke, vs Vh, EE alone or SIN010 alone, FIG. 4B", "value": "further improves recovery"}
    ]},
    {"smiles": "Cc1nc(C#Cc2ccnc(Cl)c2)c(C)n1-c1ccc(OC(F)(F)F)cc1", "note": "[SIN013, 2-chloro-4-[2-[2,5-dimethyl-1-[4-(trifluoromethoxy)phenyl]imidazol-4-yl]ethynyl]pyridine]", "values": [
      {"measurement": "paw placement function", "setting": "[2]; wild type rat, 2 mg/kg/day p.o. for 5 days, initiated 2 days after stroke, vs vehicle, FIG. 3D", "value": "significantly improved paw placement function"},
      {"measurement": "paw function", "setting": "[3]; mouse, 2 mg/kg daily, started 2 days after stroke, p<0.05", "value": "enhancement of function, which was significant"},
      {"measurement": "paw function", "setting": "[3]; mouse, 2 mg/kg every 48 h, started 2 days after stroke", "value": "enhancement of function"},
      {"measurement": "recovery of paw placement function", "setting": "[4]", "value": "recovery stimulated by SIN013 treatment was not seen"}
    ]},
    {"smiles": "Cc1nc(C#Cc2ccnc(Cl)c2)c(C)n1-c1ccc(F)cc1", "note": "[SIN014]", "values": [
      {"measurement": "functional recovery", "setting": "[3]; mouse, 10 mg/kg p.o. for 5 days (higher dose; lower dose 5 mg/kg p.o.), FIG. 3E", "value": "improved functional recovery at the higher dose"}
    ]},
    {"smiles": "COC(=O)N1CC[C@@H]2[C@H]1CCC[C@@]2(O)C#Cc1cccc(C)c1", "note": "[SIN 011, (3aR,4S,7aR)-Octahydro-4-hydroxy-4 [2-(3-methylphenyl)ethynyl]-1H-indole-1-carboxylic acid methyl ester]", "values": [
      {"measurement": "paw placement function", "setting": "[3]; mouse, 30 mg/kg p.o. daily for 5 days, started 2 days after stroke, vs vehicle, p<0.01, FIG. 3B", "value": "significant recovery of paw function"}
    ]},
    {"smiles": "N#Cc1cc(F)cc(-c2nc(-c3ccc(F)cn3)no2)c1", "note": "[SIN 015, 3-fluoro-5-(3-(5-fluoropyridin-2-yl)-1,2,4-oxadiazol5-yl)benzonitrile]", "values": [
      {"measurement": "recovery of function", "setting": "[2]; rat, 3 mg/kg for 5 days starting 2 days after stroke, FIG. 4C", "value": "improved recovery of function"}
    ]}
  ]
}
